In brackets after ≈: the same amount, converted by molar mass. Entries after “also recorded” stand apart in the source; their conditions may differ. Read-outs that look alike come from different tables or passages of the source.
Assays:
[1] = tested on: PAF-induced platelet aggregation; assay: Inhibition action against PAF in platelet aggregation (Washed PRP); format: cell-based, male rabbit; details: Oryctolagus cuniculus
Description: Blood was collected from a male rabbit, using a syringe containing 3.15% of citric acid (at a ratio of 1 part to 9 parts of blood) as an anticoagulant and centrifuged at 1,000 r.p.m. at room temperature for 10 minutes to obtain platelet rich plasma (PRP). This PRP was further centrifuged at 1,400 r.p.m. for 15 minutes to obtain platelet pellet, which was then suspended in Ca^++ -free Tyrode (containing 0.25% of gelatin) to prepare Washed PRP. 250 μl of the Washed PRP was stirred at 37° C. for 2 minutes, and admixed with 25 μl of 0.2-0.5 mM Ca^++ solution, followed by stirring for another 30 seconds. Then, a test compound was added to the mixture to a concentration of 3×10^-5 M and after further stirring for 2 minutes, 3×10^-7 M of PAF was added to the mixture. Platelet aggregation was measured by using a platelet aggregometer (manufactured by Rika Denki Co. in Japan). The activity of the test compound was determined from an inhibition ratio for maximum transmission (i.e. maximum aggregation ratio) by PAF in the control PRP.
Inhibition activity against PAF in platelet aggregation was assayed under the same conditions as Test Example 5.

[2] = tested on: human myelogenous leukemia cells HL-60; assay: Multiplication-inhibiting effect against human myelogenous leukemia cells HL-60; format: cell-based; details: Table 4, read-out: Multiplication inhibition against HL-60 (IC50)
Description: Shown in Table 4 is the multiplication-inhibiting effect (IC50) of the compound of the present invention against human myelogenous leukemia cells HL-60. The assay was conducted according to the method of R. Gallo et al.: Blood, Vol 54, 713 (1979).

MM46 cells = assay: Antitumor action in C3H/He mice inoculated intraperitoneally with MM46 cells (life-span prolongation, 60-day survivors); format: in vivo; details: for responders at 0.25 mg: 1440 h, read-out: 60th day: No. of survived mice/No. of tested mice (converted); for response vs control in vivo at 0.25 mg: read-out: Life-span prolongation ratio (T/C %)
Description: (i) C3H/He mice (a group consisting of five mice) were inoculated intraperitoneally with 1×10^4 MM46 cells per mouse, and each mouse was intraperitoneally given 0.25 mg of drug for consecutive 4 days, starting from the second day after the inoculation.
(ii) In the above test, each mouse was inoculated intraperitoneally with 1×10^5 MM46 cells and 0.25 mg of drug was given intraperitoneally to each mouse for consecutive 4 days, starting from the second day after the inoculation.
The assay was carried out under the same conditions as Test Example 2-i.

Sarcoma 180 cells = assay: Antitumor action in ICR mice inoculated intraperitoneally with Sarcoma 180 cells (life-span prolongation, 60-day survivors); format: in vivo; details: for responders at 0.33 mg: read-out: 60th day: No. of survived mice/No. of tested mice (converted); for response vs control in vivo at 0.33 mg: read-out: Life-span prolongation ratio (T/C %)
Description: The assay was carried out under the same conditions as Test Example 1-i.

tumor = details: background; cited from earlier work
platelet [3] = details: cited from earlier work; for platelet activating / platelet aggregation action (in words): background
[4] = background, cited from earlier work
mouse = details: iv administration; cited from earlier work
platelet [5] = assay: Effect on platelet: platelet aggregation (PAF activity) in platelet rich plasma; format: cell-based, male rabbit; details: Oryctolagus cuniculus, Table 5, rabbit PRP, 400,000 cells/1 μl, read-out: PAF activity EC50 (drug concentration causing 50% platelet aggregation)
Description: This PRP was further centrifuged at 3,000 r.p.m. for 15 minutes to obtain platelet poor plasma (PPP). By using this PPP, the PRP was diluted and so adjusted as to have a constant platelet concentration (400,000 cells/1 μl). […] Platelet aggregation was measured by using a platelet aggregometer (manufactured by Rika Denki Co. in Japan).

[6] = Table 10, same conditions as Test Example 5, read-out: Inhibition ratio
[7] = Table 6, test compound 3×10^-5 M, PAF 3×10^-7 M, read-out: Inhibition ratio
[8] = Mus musculus, ip, Table 8, same conditions as Test Example 2-i
[9] = Mus musculus, Sarcoma-180, ip, 1440 h, Table 7, same conditions as Test Example 1-i
[10] = Mus musculus, Sarcoma-180, ip, Table 7, same conditions as Test Example 1-i
[11] = Sarcoma-180, 1440 h, Table 1, 0.33 mg/mouse ip, three times
[12] = Table 1, 1×10^5 Sarcoma 180 cells ip, 0.33 mg/mouse ip, three times (1 hour, 1 day, 2 days after inoculation), only mice surviving less than 60 days
[13] = Table 2, 1×10^4 MM46 cells, 0.25 mg/mouse ip, 4 days
[14] = Mus musculus, ip, Table 2, 1×10^4 MM46 cells ip, 0.25 mg/mouse ip for consecutive 4 days from second day, only mice surviving less than 60 days

In the case of `CCCCCCCCCCCCCCCCCCOCC(COP(=O)([O-])OCCCCCCCC[N+](C)(C)C)OC(=O)NC` (stereo not drawn) [Example 44, 2-Methylcarbamoyloxy-3-octadecyloxypropyl 8-trimethylammoniooctyl phosphate], the inhibition at 30 µM [1, 6] is reported as 100%.
`CCCCCCCCCCCCCCCCCCOCC(COP(=O)([O-])OCC[N+](C)(C)C)OC(=O)CC(C)=O` (stereo not drawn) [Reference compound 1, reference compound] showed an IC50 [2] of 6.6 µg/mL (≈ 11.1 µM) and an inhibition at 30 µM [1, 7] of 0%.
`CCCCCCCCCCCCCCCCCCOCC(COP(=O)([O-])OCCCCCCCCCC[N+](C)(C)C)OC(=S)NC` (stereo not drawn) [Example 9, 2-Methylthiocarbamoyloxy-3-octadecyloxypropyl 10-trimethylammoniodecyl phosphate] gave a responders at 0.25 mg (MM46 cells; [8]) of 40%, a response vs control in vivo at 0.25 mg (MM46 cells; [8]) of 170% and an inhibition at 30 µM [1, 6] of 55%.
In the case of `CCCCCCCCCCCCCCCCCCOCC(COP(=O)([O-])OCCCCCCCCCC[N+](C)(C)C)OC(=O)NC` (stereo not drawn) [Example 8, 2-Methylcarbamoyloxy-3-octadecyloxypropyl 10-trimethylammoniodecyl phosphate], the inhibition at 30 µM [1, 6] is reported as 100%.
In the case of `COC(COCCCCCCCCCCCCCCC(C)C)COP(=O)([O-])OCCCCCCCCCC[N+](C)(C)C` (stereo not drawn) [Example 39, 2-Methoxy-3-(15-methylhexadecyloxy)propyl 10-trimethylammoniodecyl phosphate], the responders at 0.33 mg (Sarcoma 180 cells; [9]) is reported as 0%, the response vs control in vivo at 0.33 mg (Sarcoma 180 cells; [10]) is reported as 265% and the inhibition at 30 µM [1, 6] is reported as 69%.
With `CCCCCCCCCCCCCCCCCCOCC(COP(=O)([O-])OCCCCCCCCCC[N+](C)(C)C)OCC(=O)O` (stereo not drawn) [Example 46, 2-(Carboxymethyloxy)-3-(octadecyloxy)propyl 10-trimethylammoniodecyl phosphate] the responders at 0.33 mg (Sarcoma 180 cells; [9]) was 0%, the response vs control in vivo at 0.33 mg (Sarcoma 180 cells; [10]) was 335% and the responders at 0.25 mg (MM46 cells; [8]) was 20%. For the same molecule, the response vs control in vivo at 0.25 mg (MM46 cells; [8]) was 287%.
For `CCCCCCCCCCCCCCCCCCOCC(COP(=O)([O-])OCCC[N+](C)(C)C)OC(=O)CC(C)=O` (stereo not drawn) [Reference compound 2, reference compound], the IC50 [2] was 11 µg/mL (≈ 18.1 µM) and the inhibition at 30 µM [1, 7] was 0%.
In the case of `CCCCCCCCCCCCCCCCCCNC(=O)OCC(COP(=O)([O-])OCC[N+](C)(C)C)OC` (stereo not drawn) [VI, reference compound], the responders at 0.33 mg (Sarcoma 180 cells; [11]) is given as 0%, the response vs control in vivo at 0.33 mg (Sarcoma 180 cells; [12]) is given as 202% and the “antitumor action (in words)” value (tumor) is given as “not sufficient”.
`CCCCCCCCCCCCCCCCCCC(=O)COCC(COP(=O)([O-])OCCCCCCCCCC[N+](C)(C)C)OC` (stereo not drawn) [Example 6, 2-Methoxy-3-(2-oxoeicocyloxy)propyl 10-trimethylammoniodecyl phosphate] gave a responders at 0.33 mg (Sarcoma 180 cells; [9]) of 0%, a response vs control in vivo at 0.33 mg (Sarcoma 180 cells; [10]) of 242% and a responders at 0.25 mg (MM46 cells; [8]) of 80%. The response vs control in vivo at 0.25 mg (MM46 cells; [8]) was 145%.
For `CCCCCCCCCCCCCCCCCCOCC(COP(=O)([O-])OCC[N+](C)(C)C)OC(=O)N(C)C` (stereo not drawn) [Compound (V)], the “platelet activating / platelet aggregation action (in words)” value (platelet [3]) is given as “remarkably strong platelet activating activity”.
With `CCCCCCCCCCCCCCCCCCNC(=O)OCC(COP(=O)([O-])OCCCCCCCCCC[N+](C)(C)C)OC` (stereo not drawn) [Example 11, 3-Octadecylcarbamoyloxy-2-methoxypropyl 10-trimethylammoniodecyl phosphate] the responders at 0.33 mg (Sarcoma 180 cells; [9]) was 0%, the response vs control in vivo at 0.33 mg (Sarcoma 180 cells; [10]) was 253% and the responders at 0.25 mg (MM46 cells; [8]) was 40%. For the same molecule, the response vs control in vivo at 0.25 mg (MM46 cells; [8]) was 186%.
Work on `COC(COCCCCCCCCCCCCC1CCCCC1)COP(=O)([O-])OCCCCCCCCCC[N+](C)(C)C` (stereo not drawn) [Example 33, 3-(12-Cyclohexyldodecyloxy)-2-methoxypropyl 10-trimethylammoniodecyl phosphate] yielded a responders at 0.33 mg (Sarcoma 180 cells; [9]) of 0%, a response vs control in vivo at 0.33 mg (Sarcoma 180 cells; [10]) of 266% and an inhibition at 30 µM [1, 6] of 100%.
With `CCCCCCCCCCCCCCCCCCOCC(COP(=O)([O-])OCCCCCCCCCC[N+](C)(C)C)OC` (stereo not drawn) [Example 10, 2-Methoxy-3-octadecyloxypropyl 10-trimethylammoniodecyl phosphate] the responders at 0.33 mg (Sarcoma 180 cells; [9]) was 0%, the response vs control in vivo at 0.33 mg (Sarcoma 180 cells; [10]) was 212% and the responders at 0.25 mg (MM46 cells; [8]) was 40%. The response vs control in vivo at 0.25 mg (MM46 cells; [8]) was 249% and the inhibition at 30 µM [1, 6] was 53%.
Molecule `CCCCCCCCCCCCCCCCCCOCC(COP(=O)([O-])OCCCCCCCC[N+](C)(C)C)OC(=O)CC(C)=O` (stereo not drawn) [Example 29, 2-(Acetoacetoxy)-3-(octadecyloxy)propyl 8-trimethylammoniooctyl phosphate] has an inhibition at 30 µM [1, 6] of 96%.
Molecule `CC(=O)CC(=O)OC(COCCCCCCCCCCCCCCC(C)C)COP(=O)([O-])OCCCCCCCCCC[N+](C)(C)C` (stereo not drawn) [Example 43, 2-(Acetoacetyloxy)-3-(15-methylhexadecyloxy)propyl 10-trimethylammoniodecylphosphate] has a responders at 0.33 mg (Sarcoma 180 cells; [9]) of 40%, a response vs control in vivo at 0.33 mg (Sarcoma 180 cells; [10]) of 128% and a responders at 0.25 mg (MM46 cells; [8]) of 0%. For the same molecule, the response vs control in vivo at 0.25 mg (MM46 cells; [8]) was 232% and the inhibition at 30 µM [1, 6] was 100%.
In the case of `CCCCCCCCCCCCCCCCCCOCC(COP(=O)([O-])OCC[N+](C)(C)C)OC(C)=O` (stereo not drawn) [Compound (II)], the “side effects and toxicity (in words)” value ([4]; listed as PAF) is listed as “neutrophil-activating, tissue-impairing, vessel-permeability enhancing, blood-pressure lowering, heart function inhibiting, bronchoconstrictor and other actions; also recorded: toxicity for warm-blooded animals is very high”, the “platelet activating / platelet aggregation action (in words)” value (platelet [3]) is listed as “strong platelet aggregation action” and the “fatal dose for a mouse” value (mouse) is listed as “about 50 mg/kg”.
In the case of `CCCCCCCCCCCCCCCCCCOCC(COP(=O)([O-])OCCCCCCCCCC[N+](C)(C)C)OC(=O)CC(C)=O` (stereo not drawn) [Example 3, 2-(Acetoacetyloxy)-3-(octadecyloxy)propyl 10-trimethylammoniodecyl phosphate], the “life-span prolongation ratio (T/C %)” value (Sarcoma 180 cells; 1 mg/mouse, otherwise as Test Example 1-i) is reported as 369%, the “number of survived mice on the 60th day” value (Sarcoma 180 cells; 1 mg/mouse, group of 5 mice) is reported as 2 mice and the responders at 0.33 mg (Sarcoma 180 cells; [11]) is reported as 40%. The response vs control in vivo at 0.33 mg (Sarcoma 180 cells; [12]) was 326%, the responders at 0.25 mg (MM46 cells; [13]) was 80% and the response vs control in vivo at 0.25 mg (MM46 cells; [14]) was 132%. The response vs control in vivo at 0.25 mg (MM46 cells; Mus musculus, ip, Table 3, 1×10^5 MM46 cells ip, 0.25 mg/mouse ip for consecutive 4 days, only mice surviving less than 60 days) was 125%, the “60th day: No. of survived mice/No. of treated mice” value (MM46 cells; Table 3, 1×10^5 MM46 cells, 0.25 mg/mouse ip, 4 days) was 4/5 and the IC50 [2] was 1.5 µg/mL. It also gave an inhibition at 30 µM [1, 7] of 72%.
With `CCCCCCCCCCCCCCCCCCOCC(COP(=O)([O-])OCC[N+](C)(C)C)OC` (stereo not drawn) [Compound (III), reference compound] the “life-span prolongation ratio compared with the control group (in words)” value (Sarcoma 180 cells; 1 mg/mouse, for its toxicity) was “smaller life-span prolongation ratio than the control group”, the responders at 0.33 mg (Sarcoma 180 cells; [11]) was 0% and the response vs control in vivo at 0.33 mg (Sarcoma 180 cells; [12]) was 162%. The responders at 0.25 mg (MM46 cells; [13]) was 0%, the response vs control in vivo at 0.25 mg (MM46 cells; [14]) was 155% and the “side effects and toxicity (in words)” value [4] was “both blood-pressure lowering and topically irritating actions are observed; also recorded: high degree of its toxicity”. For the same molecule, the “antitumor action (in words)” value (tumor) was “exhibit an antitumor action”, the “platelet activating / platelet aggregation action (in words)” value (platelet [3]) was “possess a platelet activating action” and the EC50 (platelet [5]) was 30 µM.
In the case of `CCCCCCCCCCCCCCCCCCOCC(COP(=O)([O-])OCC[N+](C)(C)C)OC(=O)CCC` (stereo not drawn) [Compound (IV), reference compound], the responders at 0.33 mg (Sarcoma 180 cells; [11]) is given as 0%, the response vs control in vivo at 0.33 mg (Sarcoma 180 cells; [12]) is given as 109% and the “platelet activating action relative to that of PAF (II)” value (platelet [3]; Thrombosis Research, 30, 143 (1983)) is given as “about 1/10”.
With `CCCCCCCCCCCCCCCCCCOCC(COP(=O)([O-])OCCCCCCCCCC[N+](C)(C)C)OCC(C)=O` (stereo not drawn) [Example 18, 3-(Octadecyloxy)-2-(2-oxopropyloxy)propyl 10-trimethylammoniodecyl phosphate] the EC50 (platelet [5]) was over 100 µM and the inhibition at 30 µM [1, 7] was 100%.

— patent US4778912A, “Phospholipid derivatives” (priority 1985, dated 1988)
